Experimental data from patent US4844897A, “Anti-tumor protease preparations” (Maeda; Hiroshi, priority 1985, dated 1989).

B1: Papain: protease of plant origin (protein, UniProt P00784 134-345, looked up)
Papain: IPEYVDWRQKGAVTPVKNQGSCGSCWAFSAVVTIEGIIKIRTGNLNEYSEQELLDCDRRSYGCNGGYPWSALQLVAQYGIHYRNTYPYEGVQRYCRSREKGPYAAKTDGVRQVQPYNEGALLYSIANQPVSVVLEAAGKDFQLYRGGIFVGPCGNKVDHAVAAVGYGPNYILIKNSWGTGWGENGYIRIKRGTGNSYGVCGLYTSSFYPVKN

Columns and labels:
HeLa = experiment: Cytotoxicity induced by protease activity in the presence of serum; type: cell-based
Experimental: (§1) Cell toxicity of various proteases against cultured cells and influences of serum on the cell toxicity:
(§2) The present inventors have investigated cell-killing effects of various proteases by adding the proteases to various cultured cells, and also at the same time the effect of serum on the cytotoxicity.
(§3) After 24 hours, the cells in the Lab Tech chambers were allowed to culture under three different condition. In group A, they were replaced in RPMI medium with 10% fetal calf serum containing different concentrations of test protease. In group B, the same medium with appropriate protease was used but devoid of serum; In group C, a control medium was used with 10% serum but without protease. One hour and 24 hours after the culturing cytotoxicity, observed microscopically, was determined by counting the number of cells and by morphological investigation.

Vero = experiment: as above; type: cell-based, monkey
Experimental: as §1, §2, §3

GMK = experiment: as above; type: cell-based, African green monkey
Experimental: as §1, §2
as §3, with “A 0.5 ml aliquot of RPMI-1640 medium or Eagle's NEM medium containing 10% bovine fetal calf serum was placed in a Lab Tech plastic chamber of 8-well type, (Falcon Inc.), and suspensions of various tumor cells, each containing about 1×10^4 cells in 0.5 ml, were added thereto and cultured in an incubator at 37° C. in 5% CO2 (95% being air). After” for “After”
(§4) (b) Numerals show reciprocal number of dilution for obtaining the
(§5) equivalent effect after 24hour treatment on the basis of the effect of th […]

HeP2 = experiment: as above; type: cell-based, human
Experimental: as §1, §2, §3

WISH = experiment: as above; type: cell-based, human
Experimental: as §1, §2, §3

HSG = experiment: as above; type: cell-based, human
Experimental: as §1, §2, §3

tumor cell = experiment: Effect of serum on tumor cell toxicity with time; type: cell-based; conditions: presence of serum; 24-hour vs one-hour treatment
Experimental: as §1, §2, §3

[1] = test system: α1 anti-trypsin, α2 antichymotrypsin, α2 macroglobulin, etc.; experiment: Inhibition of protease activity by protease-inhibiting substances in vivo
[2] = test system: Human submaxillary gland tumor (HSG); experiment: Toxicity of various proteases against cultured cells, serum-free; type: cell-based; conditions: absence of serum, 24-hour treatment
Experimental: as §1, §2, §3

[3] = test system: Mouse leukemia (RL.male. 1); experiment: as above; type: cell-based; conditions: absence of serum, 24-hour treatment
Experimental: as §1, §2, §3

[4] = test system: Human normal T-lymphocytes; experiment: as above; type: cell-based; conditions: absence of serum, 24-hour treatment
Experimental: as §1, §2, §3

[5] = test system: Rat hepatocytes (Liver cells); experiment: as above; type: cell-based; conditions: normal, absence of serum, 24-hour treatment
Experimental: as §1, §2, §3

[6] = test system: Burkitt's lymphoma (Raji); experiment: as above; type: cell-based; conditions: absence of serum, 24-hour treatment
Experimental: as §1, §2, §3

[7] = test system: Cervical canal cancer (HeLa); experiment: as above; type: cell-based; conditions: absence of serum, 24-hour treatment
Experimental: as §1, §2, §3

Rat neuroblastoma (C6) = experiment: as above; type: cell-based; conditions: absence of serum, 24-hour treatment
Experimental: as §1, §2, §3

Human fibroblast (WISH) = experiment: as above; type: cell-based; conditions: normal cell, absence of serum, 24-hour treatment
Experimental: as §1, §2, §3

[8] = test system: Human fetus lung fibroblast (HEL); experiment: as above; type: cell-based; conditions: normal cell, absence of serum, 24-hour treatment
Experimental: as §1, §2, §3

[9] = test system: Monkey kidney fibroblast (Vero); experiment: as above; type: cell-based; conditions: normal cell, absence of serum, 24-hour treatment
Experimental: as §1, §2, §3

[10] = test system: African green monkey kidney (Epithelial cells); experiment: as above; type: cell-based; conditions: normal, absence of serum, 24-hour treatment
Experimental: as §1, §2, §3

[11] = test system: Human laryngeal carcinoma (HEp-2); experiment: as above; type: cell-based; conditions: absence of serum, 24-hour treatment
Experimental: as §1, §2, §3

HEL = experiment: Cytotoxicity induced by protease activity in the presence of serum; type: cell-based, human
Experimental: as §1, §2
as §3, with “A 0.5 ml aliquot of RPMI-1640 medium or Eagle's NEM medium containing 10% bovine fetal calf serum was placed in a Lab Tech plastic chamber of 8-well type, (Falcon Inc.), and suspensions of various tumor cells, each containing about 1×10^4 cells in 0.5 ml, were added thereto and cultured in an incubator at 37° C. in 5% CO2 (95% being air). After” for “After”
as §4, §5

C6 = experiment: as above; type: cell-based, rat
Experimental: as §1, §2, §3

tumors = experiment: Anti-tumor action of proteases (general statement); type: in vivo
Meth A tumor = experiment: Effectiveness on mouse solid tumor (methylcholanthrene-induced Meth A tumor); type: in vivo, Balb/C mouse; conditions: injected into solid tumors, 0.1 ml, two administrations (once for each day); FIG. 3
Experimental: Anti-tumor actions of various proteases: Effectiveness on mouse solid tumor (i.e., effect on methylcholanthrene-induced tumor (Meth A tumor):
The diameters of the tumors after two administrations (once for each day) were measured.

Row | Molecule | Cytotoxicity in the presence of serum with time (reciprocal number of dilution for equivalent effect after 24-hour vs one-hour treatment) (HeLa) | Cytotoxicity in the presence of serum with time (reciprocal number of dilution for equivalent effect after 24-hour vs one-hour treatment) (Vero) | Cytotoxicity in the presence of serum with time (reciprocal number of dilution for equivalent effect after 24-hour vs one-hour treatment) (GMK) | Cytotoxicity in the presence of serum with time (reciprocal number of dilution for equivalent effect after 24-hour vs one-hour treatment) (HeP2) | Cytotoxicity in the presence of serum with time (reciprocal number of dilution for equivalent effect after 24-hour vs one-hour treatment) (WISH) | Cytotoxicity in the presence of serum with time (reciprocal number of dilution for equivalent effect after 24-hour vs one-hour treatment) (HSG) | cytotoxic effects in 24-hour treatment than one-hour treatment (tumor cell) | inhibition of activity by protease-inhibiting substances in vivo [1] | Minimum effective concentration [2] | Minimum effective concentration [3] | Minimum effective concentration [4] | Minimum effective concentration [5] | Minimum effective concentration [6] | Minimum effective concentration [7] | Minimum effective concentration (Rat neuroblastoma (C6)) | Minimum effective concentration (Human fibroblast (WISH)) | Minimum effective concentration [8] | Minimum effective concentration [9] | anti-tumor action / effect on propagation of tumors (tumors) | action against tumor propagation (Meth A solid tumor) (Meth A tumor) | further results
1 | Trypsin | 2-4 | 2-4 | 2 | 0-4 | 4 | 2-4 | no substantial enhancement | completely inhibited | 0.39 µg/mL | 0.78 µg/mL | 0.39 µg/mL | > 5.0 µg/mL | 0.05 µg/mL | 0.78 µg/mL | 1.56 µg/mL | 1.56 µg/mL | 0.20 µg/mL | 1.56 µg/mL | no anti-tumor action | no substantial action against the tumor propagation | Minimum effective concentration [10]: 0.39 µg/mL; Minimum effective concentration [11]: 1.56 µg/mL; Cytotoxicity in the presence of serum with time (reciprocal number of dilution for equivalent effect after 24-hour vs one-hour treatment) (HEL): 2; Cytotoxicity in the presence of serum with time (reciprocal number of dilution for equivalent effect after 24-hour vs one-hour treatment) (C6): 2
2 | chymotrypsin | – | – | – | – | – | – | – | completely inhibited | – | – | – | – | – | – | – | – | – | – | no anti-tumor action | – | –
3 | pepsin | – | – | – | – | – | – | – | completely inhibited | – | – | – | – | – | – | – | – | – | – | no anti-tumor action | no substantial action against the tumor propagation | –
4 | B1 | 2-4 | 2-4 | 2 | 0-4 | 2 | 2-4 | no substantial enhancement | completely inhibited | 0.38 µg/mL | 0.82 µg/mL | 0.37 µg/mL | > 5.0 µg/mL | 0.06 µg/mL | 0.84 µg/mL | 1.60 µg/mL | 1.52 µg/mL | 0.20 µg/mL | 1.58 µg/mL | no anti-tumor action | no substantial action against the tumor propagation | Minimum effective concentration [10]: 0.38 µg/mL; Minimum effective concentration [11]: 1.60 µg/mL; Cytotoxicity in the presence of serum with time (reciprocal number of dilution for equivalent effect after 24-hour vs one-hour treatment) (HEL): 2; Cytotoxicity in the presence of serum with time (reciprocal number of dilution for equivalent effect after 24-hour vs one-hour treatment) (C6): 2
